# System: HCV replication
# Test: HCV replicon assay (luciferase) in ET (Huh-lucubineo-ET) cell line
# Type: cell-based
# Settings: Hepatitis C virus, tested at 5 μM; ET replicon cells; luciferase activity measured 48-72 hours later; relative to no compound control
# Description: A cell line, ET (Huh-lucubineo-ET) was used for screening of compounds of the present invention for inhibiting HCV replication. The ET cell line was stably transfected with RNA transcripts harboring a I389luc-ubi-neo/NS3-3′/ET; replicon with firefly luciferase-ubiquitin-neomycin phosphotransferase fusion protein and EMCV-IRES driven NS3-5B polyprotein containing the cell culture adaptive mutations (E1202G; T12801; K1846T) (Krieger at al, 2001 and unpublished). The ET cells were grown in DMEM (Dulbeco's Modified Eagle's Medium), supplemented with 10% fetal calf serum, 2 mM Glutamine, Penicillin (100 IU/mL)/Streptomycin (100 μg/mL), 1× nonessential amino acids, and 250 μg/mL G418 (“Geneticin”). They were all available through Life Technologies (Bethesda, Md.). The cells were plated at 0.5-1.0×10^4 cells/well in the 96 well plates and incubated for 24 hrs before adding testing compounds. Then the compounds were added to the cells to achieve a final concentration of 0.1 nM to 50 μM and a final DMSO concentration of 0.5%. Luciferase activity were measured 48-72 hours later by adding a lysis buffer and the substrate (Catalog number Glo-lysis buffer E2661 and Bright-Glo luciferase system E2620 Promega, Madison, Wis.). Cells should not be too confluent during the assay. Percent inhibition of replication was plotted relative to no compound control. Under the same condition, cytotoxicity of the compounds was determined using cell proliferation reagent, WST-1 (Roche, Germany). The compounds showing antiviral activities, but no significant cytotoxicities were chosen to determine EC50 and TC50. For these determinations, a 10 point 2-fold serial dilution for each compound was used, which spans a concentration range of 1000 fold. EC50 and similarly TC50 values were calculated by fitting % inhibition at each concentration to the following equation:
# % inhibition=100%/[(IC50/[I])^b+1]
# where b is Hill's coefficient.
# In some preferred embodiments compounds of Formula I will have a % inhibition of at least 20% when tested at 5 μM. In other embodiments the compounds of Formula I will have a % inhibition of at least 50% when tested at 5 μM.
row,Structure (SMILES),inhibition at 5 µM
1,"O=C(NC1CC1)c1ccc(-c2csc(NC(=O)[C@@H]3COC(CC4CCOCC4)N3C(=O)OCc3ccccc3)n2)cc1 (stereo in doubt) [Compound 7095, 4-[4-(4-Cyclopropylcarbamoyl-phenyl)-thiazol-2-ylcarbamoyl]-2-(tetrahydropyran-4-ylmethyl)-oxazolidine-3-carboxylic acid benzyl ester]",99.9%
2,"CC1(c2ccncc2)SC[C@@H](C(=O)Nc2nc(-c3ccc(C(=O)NC4CC4)cc3)cs2)N1C(=O)OCc1ccccc1 (stereo in doubt) [Compound 7096, 4-[4-(4-Cyclopropylcarbamoyl-phenyl)-thiazol-2-ylcarbamoyl]-2-methyl-2-pyridin-4-yl-thiazolidine-3-carboxylic acid benzyl ester]",99.9%
3,"O=C(NC1CC1)c1ccc(-c2csc(NC(=O)[C@@H]3CSC(CCCCC(=O)N4CCCCC4)N3C(=O)OCc3ccccc3)n2)cc1 (stereo in doubt) [Compound 7102, 4-[4-(4-Cyclopropylcarbamoyl-phenyl)-thiazol-2-ylcarbamoyl]-2-(5-oxo-5-piperidin-1-yl-pentyl)-thiazolidine-3-carboxylic acid benzyl ester]",100%
4,"CCCC(C)C(=O)N1C(C2CCOCC2)SC[C@H]1C(=O)Nc1nc(-c2ccc(C(=O)NC3CC3)cc2)cs1 (stereo in doubt) [Compound 7103, 3-(2-Methyl-pentanoyl)-2-(tetrahydro-pyran-4-yl)-thiazolidine-4-carboxylic acid [4-(4-cyclopropylcarbamoyl-phenyl)-thiazol-2-yl]-amide]",99.8%
5,"O=C(Cc1ccc(NC(=O)[C@@H]2CSC(c3ccncc3)N2C(=O)OCc2ccccc2)cc1)NCc1ccccc1 (stereo in doubt) [Compound 7105, 4-[4-(Benzylcarbamoyl-methyl)-phenylcarbamoyl]-2-pyridin-4-yl-thiazolidine-3-carboxylic acid benzyl ester]",74.2%
6,"O=C(Nc1ccccc1)c1cccc(NC(=O)[C@@H]2CSC(c3ccncc3)N2C(=O)OCc2ccccc2)c1 (stereo in doubt) [Compound 7112, 4-(3-Phenylcarbamoyl-phenylcarbamoyl)-2-pyridin-4-yl-thizolidine-3-carboxylic acid benzyl ester]",64.2%
7,"O=C(NCCc1ccccc1)c1ccc(NC(=O)[C@@H]2CSC(c3ccncc3)N2C(=O)OCc2ccccc2)cc1 (stereo in doubt) [Compound 7113, 4-(4-Phenethylcarbamoyl-phenylcarbamoyl)-2-pyridin-4-yl-thiazolidine-3-carboxylic acid benzyl ester]",86.5%
8,"O=C(Cc1cccc(NC(=O)[C@@H]2CSC(c3ccncc3)N2C(=O)OCc2ccccc2)c1)NCc1ccc(Cl)cc1 (stereo in doubt) [Compound 7115, 4-{3-[(4-Chloro-benzylcarbamoyl)-methyl]-phenylcarbamoyl}-2-pyridin-4-yl-thiazolidine-3-carboxylic acid benzyl ester]",98%
9,"CN(C)c1ncc(C2SC[C@@H](C(=O)Nc3nc(-c4ccc(C(=O)NC5CC5)cc4)cs3)N2C(=O)OCc2ccccc2)cn1 (stereo in doubt) [Compound 7131, 4-[4-(4-Cyclopropylcarbamoyl-phenyl)-thiazol-2-ylcarbamoyl]-2-(2-dimethylamino-pyrimidin-5-yl)-thiazolidine-3-carboxylic acid benzyl ester]",100%
10,"COCCNC(=O)c1ccc(NC(=O)[C@@H]2CSC(c3ccncc3)N2C(=O)OCc2ccccc2)cc1 (stereo in doubt) [Compound 7135, 4-[4-(2-Methoxy-ethylcarbamoyl)-phenylcarbamoyl]-2-pyridin-4-yl-thiazolidine-3-carboxylic acid benzyl ester]",22.1%
11,"COc1ccc(Cc2cnc(NC(=O)[C@@H]3CSC(c4ccncc4)N3C(=O)OCc3ccccc3)s2)cc1 (stereo in doubt) [Compound 7137, 4-[5-(4-Methoxy-benzyl)-thiazol-2-ylcarbamoyl]-2-pyridin-4-yl-thiazolidine-3-carboxylic acid benzyl ester]",17.1%
12,"O=C(NC1CC1)c1ccc(-c2csc(NC(=O)[C@@H]3Cc4ccccc4CN3C(=O)OCc3ccccc3)n2)cc1 [Compound 7002, (S)-3-[4-(4-Cyclopropylcarbamoyl-phenyl)-thiazol-2-ylcarbamoyl]-3,4-dihydro-1H-isoquinoline-2-carboxylic acid benzyl ester]",97.5%
13,"O=C(NC1CC1)c1ccc(-c2csc(NC(=O)[C@@H]3CC[C@H](c4ccncc4)N3C(=O)OCc3ccccc3)n2)cc1 [Compound 7003, (2S,5R)-2-[4-(4-Cyclopropylcarbamoyl-phenyl)-thiazol-2-ylcarbamoyl]-5-pyridin-4-yl-pyrrolidine-1-carboxylic acid benzyl ester]",100%
14,"CC(C)(C)OC(=O)N1[C@@H](c2ccccc2)CC[C@H]1C(=O)Nc1nc(-c2ccc(C(=O)NC3CC3)cc2)cs1 [Compound 7005, (2S,5R)-2-[4-(4-Cyclopropylcarbamoyl-phenyl)-thiazol-2-ylcarbamoyl]-5-phenyl-pyrrolidine-1-carboxylic acid tert-butyl ester]",97.8%
15,"O=C(NC1CC1)c1ccc(-c2csc(NC(=O)[C@@H]3C[C@@H](Cc4ccccc4)CN3C(=O)OCc3ccccc3)n2)cc1 [Compound 7006, (2S,4R)-4-Benzyl-2-[4-(4-cyclopropylcarbamoyl-phenyl)-thiazol-2-ylcarbamoyl]-pyrrolidine-1-carboxylic acid benzyl ester]",98.4%
16,"O=C(NC1CC1)c1ccc(-c2csc(NC(=O)[C@@H]3CS[C@@H](c4cccnc4)N3C(=O)OCc3ccccc3)n2)cc1 [Compound 7009, (2S,4R)-4-[4-(4-Cyclopropylcarbamoyl-phenyl)-thiazol-2-ylcarbamoyl]-2-pyridin-3-yl-thiazolidine-3-carboxylic acid benzyl ester]",99.9%
17,"O=C(NC1CC1)c1ccc(-c2csc(NC(=O)[C@@H]3CSC(c4ccccn4)N3C(=O)OCc3ccccc3)n2)cc1 (stereo partly drawn) [Compound 7010, (R)-4-[4-(4-Cyclopropylcarbamoyl-phenyl)-thiazol-2-ylcarbamoyl]-2-pyridin-2-yl-thiazolidine-3-carboxylic acid benzyl ester]",98.1%
18,"O=C(NC1CC1)c1ccc(-c2csc(NC(=O)[C@@H]3COC(c4ccncc4)N3C(=O)OCc3ccccc3)n2)cc1 (stereo partly drawn) [Compound 7011, (S)-4-[4-(4-Cyclopropylcarbamoyl-phenyl)-thiazol-2-ylcarbamoyl]-2-pyridin-4-yl-oxazolidine-3-carboxylic acid benzyl ester]",98.8%
19,"O=C(NC1CCCC1)c1ccc(-c2csc(NC(=O)[C@@H]3CSC(c4ccncc4)N3C(=O)OCc3ccccc3)n2)cc1 (stereo partly shown) [Compound 7012, 4-[4-(4-Cyclopentylcarbamoyl-phenyl)-thiazol-2-ylcarbamoyl]-2-pyridin-4-yl-thiazolidine-3-carboxylic acid benzyl ester]",98.8%
20,"O=C(Nc1ccccc1)[C@@H]1CSC(c2cccnc2)N1C(=O)OCc1ccccc1 (stereo partly shown) [Compound 7018, 4-Phenylcarbamoyl-2-pyridin-3-yl-thiazolidine-3-carboxylic acid benzyl ester]",47.6%
21,"O=C(NC1CC1)c1ccc(-c2csc(NC(=O)C3Cc4ccccc4N3C(=O)OCc3ccccc3)n2)cc1 (stereo not shown) [Compound 7019, 2-[4-(4-Cyclopropylcarbamoyl-phenyl)-thiazol-2-ylcarbamoyl]-2,3-dihydro-indole-1-carboxylic acid benzyl ester]",98.3%
22,"CC(C)(C)OC(=O)N1c2ccccc2C[C@H]1C(=O)Nc1nc(-c2ccc(C(=O)NC3CC3)cc2)cs1 [Compound 7020, (S)-2-[4-(4-Cyclopropylcarbamoyl-phenyl)-thiazol-2-ylcarbamoyl]-2,3-dihydro-indole-1-carboxylic acid tert-butyl ester]",99.5%
23,"O=C(Nc1nc(-c2ccccc2)cs1)[C@@H]1Cc2ccccc2N1C(=O)OCc1ccccc1 [Compound 7023, (S)-2-(4-Phenyl-thiazol-2-ylcarbamoyl)-2,3-dihydro-indole-1-carboxylic acid benzyl ester]",78.5%
24,"CC1SC[C@@H](C(=O)Nc2nc(-c3ccc(C(=O)NC4CC4)cc3)cs2)N1C(=O)OCc1ccccc1 (stereo partly drawn) [Compound 7024, (R)-4-[4-(4-Cyclopropylcarbamoyl-phenyl)-thiazol-2-ylcarbamoyl]-2-methyl-thiazolidine-3-carboxylic acid benzyl ester]",99.7%
25,"O=C(Nc1nc(-c2ccccc2)cs1)[C@@H]1CSC(c2ccncc2)N1C(=O)OCc1ccccc1 (stereo partly shown) [Compound 7026, 4-(4-Phenyl-thiazol-2-ylcarbamoyl)-2-pyridin-4-yl-thiazolidine-3-carboxylic acid benzyl ester]",89.1%

# Source: patent publication US20080181866A1, “Amido Anti-viral Compounds” (Genelabs Technologies, Inc., priority 2006, published 2008)
